Where two headings read alike, the source gives them in different places.
Legend:
[1] = tested on: Spodoptera littoralis (Cotton Leafworm); experiment: Example B9: systemic insecticide test for Spodoptera littoralis, maize seedlings at 12.5 ppm; format: in vivo
Method: (§1) Systemic Insecticide Test for Spodoptera littoralis (Cotton Leafworm)
[…] Seedlings are allowed to grow for six days. Subsequently leaves are cut and placed in a Petri dish (5 cm diameter), inoculated with twelve to fifteen 1st instar S. littoralis larvae and incubated for four days in a growth chamber (25° C., 50% r.h., 18:6 L:D photo period). Number of alive insects are counted and percentage of dead calculated. Tests were conducted with one replicate.

[2] = tested on: Heliothis virescens (Tobacco Budworm); experiment: Example B2: activity against Heliothis virescens, eggs on artificial diet; format: in vivo; conditions: 96 h
Method: Activity Against Heliothis virescens (Tobacco Budworm)
Eggs (0-24 h old) are placed in 24-well microtiter plate on artificial diet and sprayed with test solutions. After an incubation period of 4 days, samples are checked for egg mortality, larval mortality, and growth inhibition.

[3] = tested on: Spodoptera littoralis (Egyptian Cotton Leafworm); experiment: Example B1: activity against Spodoptera littoralis, sprayed cotton leaf discs, L1 larvae; format: in vivo; conditions: foliar, 72 h
Excerpt: Activity Against Spodoptera littoralis (Egyptian Cotton Leafworm)
Cotton leaf discs are placed on agar in a 24-well microtiter plate and sprayed with test solutions. After drying, the leaf discs are infested with 5 L1 larvae. The samples are checked for mortality, repellent effect, feeding behaviour, and growth inhibition 3 days after treatment (DAT).

[4] = tested on: Plutella xvlostella (Diamond Back Moth); experiment: Example B3: activity against Plutella xylostella, L2 larvae on artificial diet; format: in vivo; conditions: 120 h
Method: Activity Against Plutella xvlostella (Diamond Back Moth)
24-well microtiter plate (MTP) with artificial diet is sprayed with test solutions. After drying, the MTP's are infested with larvae (L2)(10-15 per well). After an incubation period of 5 days, samples are checked for larval mortality, antifeedant and growth inhibition.

[5] = tested on: Thrips tabaci (Onion Thrips); experiment: Example B7: activity against Thrips tabaci, sunflower leaf discs; format: in vivo; conditions: foliar, 144 h
Method: Activity Against Thrips tabaci (Onion Thrips)
Sunflower leaf discs are placed on agar in a 24-well microtiter plate and sprayed with test solutions. After drying, the leaf discs are infested with a thrips population of mixed ages. After an incubation period of 6 days, samples are checked for mortality and special effects (e.g. phytotoxicity).

[6] = tested on: Cydia pomonella (Codling Moth); experiment: Example B10: activity against Cydia pomonella, sprayed diet cubes; format: in vivo; conditions: 336 h
Method: Activity Against Cydia pomonella (Codling Moth)
Standard Cydia diet cubes (1.5 cm width) are pierced with a tooth-pick and are immersed in liquid paraffin (ca. 80° C.). After the paraffin coat has hardened, an aqueous emulsion containing 12.5 ppm of active ingredient is applied using a De Vilbis sprayer (25 ml, 1 bar). After the spray coating has dried, the cubes are put into plastic containers which are then populated with two freshly hatched Cydia pomonella (1st instar). The containers are then closed with a plastic cap. After 14 days incubation at 26° C. and 40-60% relative humidity, the survival rate of the caterpillars as well as their growth regulation is determined.

[7] = tested on: Spodoptera littoralis (Cotton Leafworm); experiment: Example B11: systemic insecticide test for Spodoptera littoralis, comparison with prior art; format: in vivo; conditions: for mortality at 0.0125 ppm / mortality at 0.05 ppm: Spodoptera littoralis, 120 h, read-out: Mortality (%) after 5 days
Excerpt: as §1
[…] Seedlings are allowed to grow for six days. […] Number of alive insects are counted and percentage of dead calculated.

[8] = tested on: Frankliniella occidentalis (Western Flower Thrips); experiment: Example B12: activity against Frankliniella occidentalis, sprayed bean plants, comparison with prior art; format: in vivo; conditions: for inhibition at 12.5 ppm / inhibition at 25 ppm / inhibition at 50 ppm: Frankliniella occidentalis, 288 h, reduction of treated population vs non treated, read-out: Activity (%) after 12 days
Method: Activity Against Frankliniella occidentalis (Western Flower Thrips)
Bean plants are treated in a spray chamber with diluted test solutions. After drying they are infested with mixed population. 12 days after the infestation, samples are checked for reduction of treated population and compared to the non treated population.

[9] = tested on: Diabrotica balteata (Corn Root Worm); experiment: Example B4: activity against Diabrotica balteata, L2 larvae on artificial diet; format: in vivo; conditions: 120 h, 5 days incubation, read-out: activity (sentence prints only 'over 80%')
Method: Activity Against Diabrotica balteata (Corn Root Worm)
24-well microtiter plate (MTP) with artificial diet is sprayed with test solutions. After drying, the MTP's are infested with larvae (L2)(6-10 per well). After an incubation period of 5 days, samples are checked for larval mortality, antifeedant and growth inhibition.

[10] = tested on: Mvzus persicae (Green Peach Aphid); experiment: Example B5: activity against Myzus persicae (contact), sunflower leaf discs; format: in vivo; conditions: foliar, 144 h
Method: Activity Against Mvzus persicae (Green Peach Aphid): (Contact)
Sunflower leaf discs are placed on agar in a 24-well microtiter plate and sprayed with test solutions. After drying, the leaf discs are infested with an aphid population of mixed ages. After an incubation period of 6 DAT, samples are checked for mortality and special effects (e.g. phytotoxicity).

[11] = tested on: Myzus persicae (Green Peach Aphid); experiment: Example B6: activity against Myzus persicae (systemic), pea seedling roots in test solution; format: in vivo; conditions: 144 h
Excerpt: Activity Against Myzus persicae (Green Peach Aphid): (Systemic)
Roots of pea seedlings, infested with an aphid population of mixed ages, are placed directly in the test solutions. 6 days after introduction, samples are checked for mortality and special effects on the plant.

[12] = tested on: Tetranychus urticae (Two-Spotted Spider Mite); experiment: Example B8: activity against Tetranychus urticae, bean leaf discs; format: in vivo
Excerpt: Activity Against Tetranychus urticae (Two-Spotted Spider Mite)
Bean leaf discs on agar in 24-well microtiter plates are sprayed with test solutions. After drying, the leaf discs are infested with mite populations of mixed ages. 8 days later, discs are checked for egg mortality, larval mortality, and adult mortality.

[13] = 12.5 ppm in water, systemic via maize seedlings, one replicate, read-out: mortality
[14] = 200 ppm, 4 days incubation, eggs on artificial diet, read-out: mortality
[15] = 200 ppm, 3 days after treatment, L1 larvae on cotton leaf discs, read-out: mortality
[16] = 200 ppm, 5 days incubation, L2 larvae, read-out: mortality

Structure (SMILES) | mortality at 12.5 ppm [1] | pest or weed control at 200 ppm [9] | mortality at 200 ppm [2] | mortality at 200 ppm [3] | mortality at 200 ppm [4] | mortality at 200 ppm [5] | mortality at 12.5 ppm [6] | further results
Cc1cc(Cl)cc(C(=O)NC(C)(C#N)C2CC2)c1NC(=O)c1cc(OC(F)F)nn1-c1ncccc1Cl (stereo not drawn) | – | – | – | – | – | – | – | melting point: 197 to 198 °C
Cc1cc(I)cc(C(=O)NC(C)(C#N)C2CC2)c1NC(=O)c1cc(OC(F)F)nn1-c1ncccc1Cl (stereo not drawn) | – | – | – | – | – | – | – | melting point: 203 to 204 °C
Cc1cc(Cl)cc(C(=O)NC(C)(C#N)C2CC2)c1NC(=O)c1cc(C(F)(F)F)nn1-c1ncccc1Cl (single isomer, unassigned) [Compound T1.1.49a] | – | – | – | – | – | – | – | mortality at 12.5 ppm [1, 13]: > 80%; mortality at 200 ppm [2, 14]: > 80%; mortality at 200 ppm [3, 15]: > 80%; mortality at 200 ppm [4, 16]: > 80%; mortality at 200 ppm ([5]; 200 ppm, 6 days incubation, mixed ages, read-out: mortality): > 80%; mortality at 12.5 ppm ([6]; 12.5 ppm, 14 days incubation at 26° C., read-out: mortality): > 80%
Cc1cc(Cl)cc(C(=O)NC(C#N)C2CC2)c1NC(=O)c1cc(C(F)(F)F)nn1-c1ncccc1Cl (stereo not drawn) [A.1.346, reference compound] | – | – | – | – | – | – | – | mortality at 0.0125 ppm [7]: 0%; mortality at 0.05 ppm [7]: 100%; inhibition at 12.5 ppm [8]: 0%; inhibition at 25 ppm [8]: 0%; inhibition at 50 ppm [8]: 0%
Cc1cc(Cl)cc(C(=O)NC(C)(C#N)C2CC2)c1NC(=O)c1cc(C(F)(F)F)nn1-c1ncccc1Cl (stereo not drawn) [Compound T1.1.49, 2-(3-chloro-pyridin-2-yl)-5-trifluoromethyl-2H-pyrazole-3-carboxylic acid {4-chloro-2-[(cyano-cyclopropyl-methyl-methyl)-carbamoyl]-6-methyl-phenyl}-amide] | > 80% | > 80% | > 80% | > 80% | > 80% | > 80% | > 80% | mortality at 0.0125 ppm [7]: 93%; mortality at 0.05 ppm [7]: 100%; insecticidal action compared with the compound from the state of the art (A.1.346) ([7]; Table B11): substantially better insecticidal action; mortality at 200 ppm [10]: > 80%; inhibition at 12.5 ppm [8]: 75%; inhibition at 25 ppm [8]: 85%; inhibition at 50 ppm [8]: 90%; insecticidal action compared with the compound from the state of the art (A.1.346) ([8]; Table B12, 50, 25 and 12.5 ppm): substantially better insecticidal action
Cc1cc(Cl)cc(C(=O)NC(C)(C#N)C2CC2)c1NC(=O)c1cc(Br)nn1-c1ncccc1Cl (stereo not drawn) [Compound T1.1.50] | > 80% | > 80% | > 80% | > 80% | > 80% | > 80% | > 80% | mortality at 12.5 ppm [11]: > 80%
Cc1cc(Cl)cc(C(=O)NC(C)(C#N)C2CC2)c1NC(=O)c1cc(Cl)nn1-c1ncccc1Cl (stereo not drawn) [Compound T1.1.51] | > 80% | > 80% | > 80% | > 80% | > 80% | > 80% | > 80% | –
Cc1cc(Cl)cc(C(=O)NC(C)(C#N)C2CC2)c1NC(=O)c1cc(C(F)F)nn1-c1ncccc1Cl (stereo not drawn) [Compound T1.1.52] | > 80% | > 80% | > 80% | > 80% | > 80% | > 80% | > 80% | mortality at 12.5 ppm [11]: > 80%; mortality at 200 ppm [10]: > 80%
Cc1cc(Cl)cc(C(=O)NC(C)(C#N)C2CC2)c1NC(=O)c1cc(OCC(F)(F)F)nn1-c1ncccc1Cl (stereo not drawn) [Compound T1.1.53] | > 80% | > 80% | > 80% | > 80% | > 80% | – | > 80% | –
COc1cc(C(=O)Nc2c(C)cc(Cl)cc2C(=O)NC(C)(C#N)C2CC2)n(-c2ncccc2Cl)n1 (stereo not drawn) [Compound T1.1.55] | > 80% | > 80% | > 80% | > 80% | > 80% | – | – | mortality at 12.5 ppm [11]: > 80%
Cc1cc(I)cc(C(=O)NC(C)(C#N)C2CC2)c1NC(=O)c1cc(C(F)(F)F)nn1-c1ncccc1Cl (stereo not drawn) [Compound T1.1.105] | > 80% | > 80% | > 80% | > 80% | > 80% | > 80% | > 80% | mortality at 200 ppm [10]: > 80%
Cc1cc(I)cc(C(=O)NC(C)(C#N)C2CC2)c1NC(=O)c1cc(Br)nn1-c1ncccc1Cl (stereo not drawn) [Compound T1.1.106] | > 80% | > 80% | > 80% | > 80% | > 80% | – | – | –
Cc1cc(I)cc(C(=O)NC(C)(C#N)C2CC2)c1NC(=O)c1cc(Cl)nn1-c1ncccc1Cl (stereo not drawn) [Compound T1.1.107] | > 80% | – | > 80% | > 80% | > 80% | > 80% | > 80% | mortality at 200 ppm ([12]; Tetranychus urticae, foliar, 192 h): 80%; activity in words ([12]; in vivo): good activity
Cc1cc(I)cc(C(=O)NC(C)(C#N)C2CC2)c1NC(=O)c1cc(C(F)F)nn1-c1ncccc1Cl (stereo not drawn) [Compound T1.1.108] | – | > 80% | > 80% | > 80% | > 80% | > 80% | – | –
COc1cc(C(=O)Nc2c(C)cc(I)cc2C(=O)NC(C)(C#N)C2CC2)n(-c2ncccc2Cl)n1 (stereo not drawn) [Compound T1.1.111] | – | – | – | – | – | – | – | mortality at 12.5 ppm [1, 13]: > 80%; mortality at 200 ppm [2, 14]: > 80%; mortality at 200 ppm [3, 15]: > 80%; mortality at 200 ppm [4, 16]: > 80%
Cc1cc(Cl)cc(C(=O)NC(C)(C#N)C2CCC2)c1NC(=O)c1cc(C(F)(F)F)nn1-c1ncccc1Cl (stereo not drawn) [Compound T2.1.49] | – | > 80% | > 80% | > 80% | > 80% | – | – | mortality at 12.5 ppm [11]: > 80%
